Laboratory results published in patent US11020408B2, “Polymer composed of repeat units having a biologically active molecule attached thereto via a pH-sensitive bond” (SPIREA LIMITED, priority 2014, dated 2021).

System: Mycobacterium bovis BCG-lux grown in human monocyte-derived macrophages
Type: cell-based

SMILES | effect on BCG-lux viability (in words) | antibiotic efficacy (in words) | antimycobacterial activity (in words) | increase of BCG-lux bioluminescence compared to untreated cells [%] | reduction of BCG-lux bioluminescence [%] | viability lower than control cells [%]
CC[C@@H](CO)NCCN[C@@H](CC)CO [EMB, ethambutol] | did not reduce BCG-lux viability |  |  |  |  | 
NNC(=O)c1ccncc1 [INH, isoniazid] |  | equivalent to the antibiotic efficacy of E80 nanoparticles | no antimycobacterial activity | 32 | 53 | 15
